Data on 14 compounds can be found in patent US4863951A, “Pharmacologically active amino-5,6,7,8-tetrahydronaphtho [2,3-B] furan compounds” (ADIR Et Cie, priority 1987, dated 1989).

The test system of experiment [1] is apomorphine-induced rearing-up. Kind of experiment: Antagonism of apomorphine-induced rearing-up behavior in mice. The class given is in vivo. The settings on record: Mus musculus, ip, apomorphine 0.75 mg.kg^-1 s.c. The procedure:
Studied in the test of antagonism of apomorphine-induced rearing-up following the subcutaneous administration of a dose of 0.75 mg.kg^-1 of this substance in mice, the compounds of general formula I act in a clear-cut manner at doses greater than or equal to 2.5 mg.kg^-1 (i.p.). The same results are observed when the compounds of general formula I are administered orally at a dose of 20 mg.kg^-1. The activity of the compounds was assessed according to the method described by Protais P, Costentin J and Schwartz J. C. in Psychopharmacology (1976), 50, p. 1-6.
(s=significant difference, p<0.05).

The test system of experiment [2] is isolation-induced aggression. Briefly: Antiaggressive effects: isolation-induced aggression in mice. The class given is in vivo. The conditions noted are these: isolated mice, i.p. An excerpt:
The antiaggressive effects of the compounds of the invention were investigated by two methods, one of them testing for an inhibition of aggressive behavior in peviously isolated mice (Yen C. Y., Stanger A. L., and Millman N, Arch. Int. Pharmacodyn. Therap. (1959), 123, p. 179-185), and the other in isolated and bulbectomized rats (Garattini S. and Sigg E. B. "Aggressive Behaviour" p. 47-55 Ed. Excerpta Medica Found., Amsterdam, 1969).
(Tables IX and X, s=significant, p<0.05).

Experiment [3] has as its system apomorphine-induced hypothermia. Briefly: Antagonism with respect to apomorphine-induced hypothermia in mice. It counts as in vivo. The conditions noted are these: Mus musculus, ip, apomorphine 1 mg.kg^-1 s.c., after 2 hours. The method, then:
Testing for an antagonism with respect to apomorphine-induced hypothermia in mice was performed according to the method described by CHERMAT R. and PONCELET M. in J. Pharmac. (1983), 14, No. 1, p. 93-97. The dose of apomorphine administered subcutaneously was 1 mg.kg^-1. Tables VII and VIII show the percentage antagonism of the hypothermia observed after 2 hours.

Experiment [4] deals with reserpine-induced hypothermia. Kind of experiment: Antagonism of reserpine-induced hypothermia. It counts as in vivo, Swiss CD male mice. The settings on record: mice, reserpine 2.5 mg.kg^-1 i.p. The method, then:
The antidepressant effects of the compounds of the invention were investigated by assessing the antagonism of reserpine-induced hypothermia and the antagonism of the ponto-geniculo-occipital waves induced by the compound Ro4-1284 in cats.
The study is carried out on Swiss CD male mice (27-28 g). After distribution into groups of 10 animals each, reserpine is injected intraperitoneally at a dose of 2.5 mg.kg^-1. Three hours later, the compounds undergoing trial are administered intraperitoneally. The rectal temperature of the animals is measured one hour and two hours after the second treatment, and compared with the initial temperature To of these same animals, measured immediately before the administration of the compounds undergoing trial.

For experiment [5], the system named is apomorphine-induced stereotypy. Briefly: Antagonism of apomorphine-induced stereotypy in rats. The conditions noted are these: Rattus norvegicus, ip, 0.5 h, apomorphine 1.5 mg.kg^-1 i.p., 30 minutes. It counts as in vivo. The procedure: The inhibitory activity of the compounds of the invention with respect to apomorphine- or amphetamine-induced stereotypy in rats was assessed using the scale of scoring of stereotyped movements described by Quinton R. M. and Halliwell G. in Nature (1963), 200, p. 178-179.
Apomorphine or amphetamine was administered to the animals intraperitoneally at a dose of 1.5 mg.kg^-1. The percentage inhibition (-) or potentiation (+) of the stereotypy score (% ISS) shown in Tables IV and V for apomorphine corresponds to a measurement time of 30 minutes. In contrast, the percentage inhibition of the stereotypy score shown in Table VI for amphetamine corresponds to a measurement time of 3 hours. […]

Where [6] appears, read: mice, i.p. dose 20 mg.kg^-1, read-out: % inhibition of rearing-up.
Where [7] appears, read: mice, i.p. dose 40 mg.kg^-1, read-out: % inhibition of rearing-up.
[8] abbreviates: mice, i.p. dose 10, read-out: % antagonism of hypothermia.
Where [9] appears, read: mice, i.p. dose 20, read-out: % antagonism of hypothermia.
[10] abbreviates: rats, i.p. dose 10 mg.kg^-1, read-out: % ISS (inhibition (-) or potentiation (+) of the stereotypy score).
The mark [11] stands for this setting: rats, i.p. dose 20 mg.kg^-1, read-out: % ISS (inhibition (-) or potentiation (+) of the stereotypy score).
The mark [12] stands for this setting: read-out: % inhibition of rearing-up, mice, i.p. dose 20 mg.kg^-1.
The mark [13] stands for this setting: read-out: % inhibition of rearing-up, mice, i.p. dose 40 mg.kg^-1.
The mark [14] stands for this setting: mice, i.p. dose 10 mg.kg^-1, read-out: % inhibition of rearing-up.
The mark [15] stands for this setting: read-out: % inhibition of rearing-up, mice, i.p. dose 10 mg.kg^-1.
The mark [16] stands for this setting: 2 h, read-out: % antagonism of hypothermia, mice, i.p. dose 10.
Where [17] appears, read: 2 h, read-out: % antagonism of hypothermia, mice, i.p. dose 20.
Where [18] appears, read: read-out: % ISS (inhibition (-) or potentiation (+) of the stereotypy score), rats, i.p. dose 10 mg.kg^-1.

Structures can show the parent of a compound that is named as a salt. Where two headings read alike, the source gives them in different places.

As to `OCCCCCCNC1CCc2cc3c(cc2C1)OCC3` (racemic) [Example 32, dl-7-[N-(6-Hydroxyhexyl)amino]-2,3,5,6,7,8-hexahydronaphtho[2,3-b]furan hydrochloride], the results for the change in vivo at 20 mg/kg in experiment [1] (setting [6]), in experiment [3] (setting [9]) and in experiment [5] (setting [11]) were -32%, -13% and -5%, respectively. The change in vivo at 40 mg/kg in experiment [1] (setting [7]) was -40%. Also, the entries for the “% of pairs of mice showing no sign of fighting” value in experiment [2] (5 mg.kg^-1) and in experiment [2] (20 mg.kg^-1) were 10% and 30%, respectively. For the same compound, the change in vivo at 10 mg/kg in experiment [3] (setting [8]) is -10%; in experiment [5] (setting [10]), -3%. The “% inhibition of hypothermia” value in experiment [4] (10 mg.kg^-1 i.p.) was -1%; in experiment [4] (20 mg.kg^-1 i.p.), -29%.

In the case of `NC1CCCc2cc3c(cc21)OCC3` (racemic) [Example 15, dl-8-Amino-2,3,5,6,7,8-hexahydronaphtho[2,3-b]furan hyrochloride], in experiment [1] (setting [12]), the change in vivo at 20 mg/kg is -9%. Moreover, in experiment [1] (setting [13]), the change in vivo at 40 mg/kg amounted to 0%.

For `CC(CCCCC(=O)O)NC1CCc2cc3c(cc2C1)OCC3` (racemic) [Example 29, dl-6-{N-(2,3,5,6,7,8-Hexahydronaphtho[2,3-b]furan-7-yl)amino}-6-methylhexanoic acid hydrochloride], the change in vivo at 10 mg/kg in experiment [5] (setting [10]) was 11%.

Take `CC(CCCC(=O)O)NC1CCc2cc3c(cc2C1)OCC3` (racemic) [Example 27]: the change in vivo at 10 mg/kg in experiment [1] (setting [14]) was -46%; in experiment [3] (setting [8]), -5%; in experiment [5] (setting [10]), -5%. In addition, the results for the change in vivo at 20 mg/kg in experiment [1] (setting [6]), in experiment [3] (setting [9]) and in experiment [5] (setting [11]) were -63%, -32% and -8%, respectively. In addition, the “% inhibition of hypothermia” value in experiment [4] (10 mg.kg^-1 i.p.) is reported as -13%; in experiment [4] (20 mg.kg^-1 i.p.) it was -21%.

Turning to `O=C(O)CCCCCNC1CCc2cc3c(cc2C1)OCC3` (racemic) [Example 25, dl-6-{N-(2,3,6,7,8-Hexahydronaphtho[2,3-b]furan-7-yl)amino}hexanoic acid hydrochloride], in experiment [2] (10 mg.kg^-1), the “% of pairs of mice showing no sign of fighting” value turned out to be 20%. The change in vivo at 10 mg/kg in experiment [5] (setting [10]) amounted to 9%.

As for `CCCNC1CCc2cc3c(cc2C1)OCC3` (racemic) [Example 34, dl-7-N-n-Propylamino)-2,3,5,6,7,8-hexahydronaphtho[2,3,-b]furan hydrochloride], the change in vivo at 10 mg/kg in experiment [1] (setting [15]) is -23%; in experiment [3] (setting [16]), -7%; in experiment [5] (setting [18]) it was -68%. Also, the change in vivo at 40 mg/kg in experiment [1] (setting [13]) was -100%. Also, the change in vivo at 20 mg/kg in experiment [3] (setting [17]) was -16%; in experiment [5] (read-out: % ISS (inhibition (-) or potentiation (+) of the stereotypy score), rats, i.p. dose 20 mg.kg^-1), -70%.

With `CCCN(CCC)C1CCc2cc3c(cc2C1)OCC3` (racemic) [Example 5, dl-7-(N,N-Dipropylamino)-2,3,5,6,7,8-hexahydronaphtho[2,3-b]furan], the change in vivo at 20 mg/kg in experiment [1] (setting [12]) is 27%; in experiment [3] (setting [17]), -68%. Also, the change in vivo at 40 mg/kg in experiment [1] (setting [13]) is -54%. The “% of pairs of mice showing no sign of fighting” value in experiment [2] (20 mg.kg^-1) worked out at 50%; in experiment [2] (40 mg.kg^-1), 89%. Also, the change in vivo at 5 mg/kg was -20% in experiment [3] (2 h, read-out: % antagonism of hypothermia, mice, i.p. dose 5) and -3% in experiment [5] (read-out: % ISS (inhibition (-) or potentiation (+) of the stereotypy score), rats, i.p. dose 5 mg.kg^-1). Further, the change in vivo at 10 mg/kg in experiment [3] (setting [16]) is -47%; in experiment [5] (setting [18]) it was 0%.

On to `CN(CC1CCCCC1)C1CCc2cc3c(cc2C1)OCC3` (racemic) [Example 10, dl-7-(N-Cyclohexylmethyl-N-methylamino)-2,3,5,6,7,8-hexahydronaphtho[2,3-b]furan hydrochloride], for which the change in vivo at 10 mg/kg in experiment [1] (setting [15]) is 11%. Moreover, the change in vivo at 20 mg/kg in experiment [1] (setting [12]) is 11%. Also, the change in vivo at 40 mg/kg in experiment [1] (setting [13]) was -96%. For the same compound, the “% of pairs of mice showing no sign of fighting” value is given as 0% in experiment [2] (5 mg.kg^-1), 11% in experiment [2] (10 mg.kg^-1) and 60% in experiment [2] (20 mg.kg^-1).

`NC1CCCc2cc3c(cc21)CCO3` (racemic) [Example 18, dl-5-Amino-2,3,5,6,7,8-hexahydronaphtho[2,3,-b]furan hydrochloride]: the change in vivo at 20 mg/kg in experiment [1] (setting [12]) is -12%. The change in vivo at 40 mg/kg in experiment [1] (setting [13]) is 6%.

In the case of `O=C1CCCN1C1CCc2cc3c(cc2C1)OCC3` (racemic) [Example 37, dl-7-(2-Oxo-1-pyrrolidinyl)-2,3,5,6,7,8-hexahydronaphtho[2,3-b]furan], the change in vivo at 10 mg/kg in experiment [5] (setting [10]) was -6%. Moreover, the change in vivo at 20 mg/kg in experiment [5] (setting [11]) is -14%.

In the case of `CC(CCCCCC(=O)O)NC1CCc2cc3c(cc2C1)OCC3` (racemic) [Example 31, dl-7-{N-(2,3,5,6,7,8-Hexahydronaphtho[2,3-b]furan-7-yl)amino}-7-methylheptanoic acid hydrochloride], the change in vivo at 20 mg/kg was 5% in experiment [1] (setting [6]) and -3% in experiment [5] (setting [11]). Also, the change in vivo at 40 mg/kg in experiment [1] (setting [7]) came out at 22%. Besides, in experiment [5] (setting [10]), the change in vivo at 10 mg/kg stood at 5%.

Consider `FC(F)(F)CNC1CCc2cc3c(cc2C1)OCC3` (racemic) [Example 35, dl-7-[N-(2,2,2-Trifluoroethyl)amino]-2,3,5,6,7,8-hexahdronaphtho[2,3-b]furan hydrochloride], for which the change in vivo at 10 mg/kg in experiment [1] (setting [14]) was -30%; in experiment [3] (setting [8]) it was -16%. Further, the change in vivo at 20 mg/kg in experiment [1] (setting [6]) was -38%; in experiment [3] (setting [9]) it was -31%. Besides, the figures for the “% inhibition of hypothermia” value in experiment [4] (10 mg.kg^-1 i.p.) and in experiment [4] (20 mg.kg^-1 i.p.) were -20% and -4%, respectively.

On to `NC1CCc2cc3c(cc2C1)CCO3` (racemic) [Example 19, dl-6-Amino-2,3,5,6,7,8-hexahydronaphtho[2,3-b]furan hydrochloride], for which the change in vivo at 20 mg/kg in experiment [1] (setting [12]) is -57%. For the same compound, the change in vivo at 40 mg/kg in experiment [1] (setting [13]) was -90%.

As for `NC1CCc2cc3ccoc3cc2C1` (racemic) [Example 21, dl-7-Amino-5,6,7,8-tetrahydronaphtho[2,3-b]furan hydrochloride], in experiment [1] (setting [15]), the change in vivo at 10 mg/kg was -56%. In addition, in experiment [1] (setting [12]), the change in vivo at 20 mg/kg was -84%.
